Laboratory results as given in PubChem BioAssay AID1845199 (Molecular Pharmacology Branch, DTP, NCI, 2023).

Test system: 556581-035-R-J1 tumor spheroid viability, % test/control
Test: Anticancer human tumor 556581-035-R-J1 patient-derived ovarian carcinoma cell line growth inhibition
Settings: spheroids with HUVEC and MSC; for IC50: curve of first compound; for viability, T/C: stronger effect = lower value
Method in brief: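 Single agents and combinations were tested on spheroids built from tumor cells plus HUVEC and hMSC, at half-log dilutions starting at or near clinical Cmax, else 10 microM; final DMSO 0.25% (v/v).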

[1] = second compound 1 µM, first compound 0.0316 µM
[2] = second compound 1 µM, first compound 0.1 µM
[3] = second compound 1 µM, first compound 0.316 µM
[4] = second compound 1 µM, first compound 1 µM
[5] = second compound 1 µM, first compound 3.16 µM
[6] = second compound 1 µM, first compound 10 µM
[7] = second compound 3.16 µM, first compound 0.0316 µM
[8] = second compound 3.16 µM, first compound 0.1 µM
[9] = second compound 3.16 µM, first compound 0.316 µM
[10] = second compound 3.16 µM, first compound 1 µM
[11] = second compound 3.16 µM, first compound 3.16 µM
[12] = second compound 3.16 µM, first compound 10 µM
[13] = second compound 10 µM, first compound 0.0316 µM
[14] = second compound 10 µM, first compound 0.1 µM
[15] = second compound 10 µM, first compound 0.316 µM
[16] = second compound 10 µM, first compound 1 µM
[17] = second compound 10 µM, first compound 3.16 µM
[18] = second compound 10 µM, first compound 10 µM
[19] = second compound 31.6 µM, first compound 0.0316 µM
[20] = second compound 31.6 µM, first compound 0.1 µM
[21] = second compound 31.6 µM, first compound 0.316 µM
[22] = second compound 31.6 µM, first compound 1 µM
[23] = second compound 31.6 µM, first compound 3.16 µM
[24] = second compound 31.6 µM, first compound 10 µM
[25] = second compound 100 µM, first compound 0.0316 µM
[26] = second compound 100 µM, first compound 0.1 µM
[27] = second compound 100 µM, first compound 0.316 µM
[28] = second compound 100 µM, first compound 1 µM
[29] = second compound 100 µM, first compound 3.16 µM
[30] = second compound 100 µM, first compound 10 µM
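Further: spheroids exposed to compounds for 7 days before viability read.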

| SMILES | IC50 (second compound 1 µM) [µM] | IC50 (second compound 3.16 µM) [µM] | IC50 (second compound 10 µM) [µM] | IC50 (second compound 31.6 µM) [µM] | IC50 (second compound 100 µM) [µM] | viability, T/C [1] [%] | viability, T/C [2] [%] | viability, T/C [3] [%] | viability, T/C [4] [%] | viability, T/C [5] [%] | viability, T/C [6] [%] | viability, T/C [7] [%] | viability, T/C [8] [%] | viability, T/C [9] [%] | viability, T/C [10] [%] | viability, T/C [11] [%] | viability, T/C [12] [%] | viability, T/C [13] [%] | viability, T/C [14] [%] | viability, T/C [15] [%] | further results |
| --- | --- | --- | --- | --- | --- | --- | --- | --- | --- | --- | --- | --- | --- | --- | --- | --- | --- | --- | --- | --- | --- |
| CC(C)n1c(=O)n(C)c2cnc3cc(F)c(-c4ccc(OCCCN5CCCCC5)nc4)cc3c21 + Cn1nnc2c(C(N)=O)ncn2c1=O | > 10 | > 10 | > 10 | > 10 | > 10 | 109 | 109 | 109 | 106 | 98.5 | 70.2 | 101 | 112 | 101 | 112 | 96.6 | 62.3 | 102 | 109 | 105 | viability, T/C [16]: 104%; viability, T/C [17]: 95.5%; viability, T/C [18]: 67.3%; viability, T/C [19]: 108%; viability, T/C [20]: 106%; viability, T/C [21]: 103%; viability, T/C [22]: 112%; viability, T/C [23]: 92.7%; viability, T/C [24]: 65.8%; viability, T/C [25]: 105%; viability, T/C [26]: 106%; viability, T/C [27]: 99.6%; viability, T/C [28]: 101%; viability, T/C [29]: 90.1%; viability, T/C [30]: 69.1% |
| CC1COCCN1c1cc(-c2ccnn2C)c2ccnc(-c3ccn[nH]3)c2n1 (stereo not given) + Cn1nnc2c(C(N)=O)ncn2c1=O | 0.565 | 0.591 | 0.679 | 0.604 | 0.392 | 93.7 | 69.3 | 56.3 | 43.7 | 39.9 | 33 | 90.6 | 72.5 | 56.4 | 44.2 | 37.8 | 32.5 | 86.8 | 71 | 56 | viability, T/C [16]: 45.9%; viability, T/C [17]: 40%; viability, T/C [18]: 31.2%; viability, T/C [19]: 88.9%; viability, T/C [20]: 71.6%; viability, T/C [21]: 54.6%; viability, T/C [22]: 45.8%; viability, T/C [23]: 39.1%; viability, T/C [24]: 33.4%; viability, T/C [25]: 82.8%; viability, T/C [26]: 63.8%; viability, T/C [27]: 51.7%; viability, T/C [28]: 42.8%; viability, T/C [29]: 38.1%; viability, T/C [30]: 32.8% |
| COc1cc(C)[nH]c(=O)c1CN1CCc2c(Cl)cc(C(OC)C3COC3)c(Cl)c2C1=O (stereo not given) + Cn1nnc2c(C(N)=O)ncn2c1=O | > 10 | > 10 | > 10 | > 10 | > 10 | 105 | 102 | 117 | 109 | 107 | 102 | 99.3 | 113 | 100 | 107 | 105 | 105 | 105 | 106 | 106 | viability, T/C [16]: 112%; viability, T/C [17]: 111%; viability, T/C [18]: 104%; viability, T/C [19]: 115%; viability, T/C [20]: 118%; viability, T/C [21]: 110%; viability, T/C [22]: 107%; viability, T/C [23]: 108%; viability, T/C [24]: 108%; viability, T/C [25]: 112%; viability, T/C [26]: 107%; viability, T/C [27]: 106%; viability, T/C [28]: 115%; viability, T/C [29]: 114%; viability, T/C [30]: 103% |
| COc1ccc([C@@H](O)c2cc(-c3ncnc4cc(N5CCOCC5)ccc34)c(F)cc2Cl)nn1 + Cn1nnc2c(C(N)=O)ncn2c1=O | 2.65 | 2.55 | 3.06 | 2.81 | 3.03 | 115 | 111 | 100 | 70.2 | 47.7 | 34.2 | 105 | 114 | 102 | 71 | 47.4 | 36.2 | 126 | 121 | 113 | viability, T/C [16]: 76%; viability, T/C [17]: 51.9%; viability, T/C [18]: 38.2%; viability, T/C [19]: 125%; viability, T/C [20]: 123%; viability, T/C [21]: 114%; viability, T/C [22]: 76.9%; viability, T/C [23]: 48.5%; viability, T/C [24]: 36.2%; viability, T/C [25]: 129%; viability, T/C [26]: 122%; viability, T/C [27]: 117%; viability, T/C [28]: 76.8%; viability, T/C [29]: 51.6%; viability, T/C [30]: 39.3% |
| Cc1cc(C)c(CNC(=O)c2cc(-c3ccc(CN4CCOCC4)cc3)cc3c2cnn3C2CCCC2)c(=O)[nH]1 + Cn1nnc2c(C(N)=O)ncn2c1=O | > 10 | > 10 | > 10 | > 10 | > 10 | 105 | 107 | 110 | 103 | 110 | 88 | 107 | 108 | 112 | 108 | 108 | 88.2 | 118 | 118 | 111 | viability, T/C [16]: 121%; viability, T/C [17]: 114%; viability, T/C [18]: 93.6%; viability, T/C [19]: 115%; viability, T/C [20]: 105%; viability, T/C [21]: 116%; viability, T/C [22]: 108%; viability, T/C [23]: 110%; viability, T/C [24]: 86.1%; viability, T/C [25]: 113%; viability, T/C [26]: 116%; viability, T/C [27]: 107%; viability, T/C [28]: 122%; viability, T/C [29]: 109%; viability, T/C [30]: 84.8% |
| [2H]c1nc(C)nc([2H])c1-c1cc(NC[C@@H](C)c2cccc3c(C(=O)NC)ccnc23)ncn1 + Cn1nnc2c(C(N)=O)ncn2c1=O | > 10 | > 10 | > 10 | > 10 | > 10 | 111 | 111 | 106 | 112 | 108 | 112 | 98.7 | 104 | 106 | 115 | 119 | 113 | 105 | 103 | 115 | viability, T/C [16]: 112%; viability, T/C [17]: 113%; viability, T/C [18]: 115%; viability, T/C [19]: 116%; viability, T/C [20]: 109%; viability, T/C [21]: 115%; viability, T/C [22]: 119%; viability, T/C [23]: 116%; viability, T/C [24]: 112%; viability, T/C [25]: 115%; viability, T/C [26]: 114%; viability, T/C [27]: 116%; viability, T/C [28]: 114%; viability, T/C [29]: 108%; viability, T/C [30]: 114% |
